Assay results as given in US10800792B2, “Inhibitors of Bruton's tyrosine kinase and method of their use” (JANSSEN PHARMACEUTICA NV, priority 2015, dated 2020).

Target: unphosphorylated-BTK kinase domain (UP-BTK), GST-tagged human BTK (389-659aa) (Homo sapiens (Human), UniProt Q06187)
Experiment: BTK kinase Lanthascreen binding assay
Conditions: Lanthascreen tracer competition, 60 minutes incubation, pIC50 = negative log of the IC50 in molar; for IC50: read-out: BTK_I_binding pIC50 (converted)
Procedure, shortened: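 Values are pIC50, i.e. negative log of IC50 in molar, derived from concentration–response fitting. Each compound competes with a fluorescently labelled tracer for the unphosphorylated kinase domain.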

unphosphorylated-BTK kinase domain (UP-BTK), GST-tagged human BTK (389-659aa), sequence (Q06187 389-659): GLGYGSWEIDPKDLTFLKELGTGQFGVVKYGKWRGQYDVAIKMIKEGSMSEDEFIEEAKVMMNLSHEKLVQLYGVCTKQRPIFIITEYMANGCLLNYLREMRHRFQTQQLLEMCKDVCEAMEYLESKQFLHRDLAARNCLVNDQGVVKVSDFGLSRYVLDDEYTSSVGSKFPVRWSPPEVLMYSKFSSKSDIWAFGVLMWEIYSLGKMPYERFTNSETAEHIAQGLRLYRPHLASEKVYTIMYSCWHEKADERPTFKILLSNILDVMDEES

C=CC(=O)N1C[C@@H](O)[C@@H](NC(=O)c2sc3nccc4c3c2NC(=O)N4c2ccc(OC(C)C)cc2C)C1 [Example 614, N-((3S,4R)-1-Acryloyl-4-hydroxypyrrolidin-3-yl)-5-(4-isopropoxy-2-methylphenyl)-4-oxo-4,5-dihydro-3H-1-thia-3,5,8-triazaacenaphthylene-2-carboxamide]
BTK_I_binding pIC50: 6.1

O=C(N[C@@H]1CCCNC1)c1sc2nccc3c2c1NC(=O)N3c1cccc(OC2CCCCC2)c1 [Example 616, (R)-5-(3-(Cyclohexyloxy)phenyl)-4-oxo-N-(piperidin-3-yl)-4,5-dihydro-3H-1-thia-3,5,8-triazaacenaphthylene-2-carboxamide]
BTK_I_binding pIC50: 6.1

O=C(N[C@@H]1CCCNC1)c1sc2nccc3c2c1NC(=O)N3c1cncc(-c2ccccc2)c1 [Example 618, (R)-4-Oxo-5-(5-phenylpyridin-3-yl)-N-(piperidin-3-yl)-4,5-dihydro-3H-1-thia-3,5,8-triazaacenaphthylene-2-carboxamide]
BTK_I_binding pIC50: 6.0

C=CC(=O)N1CCC[C@@H](NC(=O)c2sc3nccc4c3c2NC(=O)N4c2cnc(OC)nc2)C1 [Example 619, (R)—N-(1-Acryloylpiperidin-3-yl)-5-(2-methoxypyrimidin-5-yl)-4-oxo-4,5-dihydro-3H-1-thia-3,5,8-triazaacenaphthylene-2-carboxamide]
BTK_I_binding pIC50: <6

O=C(N[C@@H]1CCCNC1)c1sc2nccc3c2c1NC(=O)N3c1cccc(OC(F)(F)F)c1 [Example 620, (R)-4-Oxo-N-(piperidin-3-yl)-5-(3-(trifluoromethoxy)phenyl)-4,5-dihydro-3H-1-thia-3,5,8-triazaacenaphthylene-2-carboxamide]
BTK_I_binding pIC50: <6

O=C(N[C@@H]1CCCNC1)c1sc2nccc3c2c1NC(=O)N3c1cccc(OC2CCC2)c1 [Example 621, (R)-5-(3-Cyclobutoxyphenyl)-4-oxo-N-(piperidin-3-yl)-4,5-dihydro-3H-1-thia-3,5,8-triazaacenaphthylene-2-carboxamide]
BTK_I_binding pIC50: <6

O=C(N[C@@H]1CCCNC1)c1sc2nccc3c2c1NC(=O)N3c1cccc(-c2ccccn2)c1 [Example 622, (R)-4-Oxo-N-(piperidin-3-yl)-5-(3-(pyridin-2-yl)phenyl)-4,5-dihydro-3H-1-thia-3,5,8-triazaacenaphthylene-2-carboxamide]
BTK_I_binding pIC50: <6

O=C(N[C@@H]1CCCNC1)c1sc2nccc3c2c1NC(=O)N3c1cccc(-c2ccccc2)n1 [Example 623, (R)-4-Oxo-5-(6-phenylpyridin-2-yl)-N-(piperidin-3-yl)-4,5-dihydro-3H-1-thia-3,5,8-triazaacenaphthylene-2-carboxamide]
BTK_I_binding pIC50: <6

CC(C)(C)OC(=O)N1C[C@H](NC(=O)c2sc3nccc4c3c2NC(=O)N4c2ccc(Oc3ccccc3)cc2)[C@@H](F)C1 [Example 625, (3S,4S)-tert-Butyl 3-fluoro-4-(4-oxo-5-(4-phenoxyphenyl)-4,5-dihydro-3H-1-thia-3,5,8-triazaacenaphthylene-2-carboxamido)pyrrolidine-1-carboxylate]
BTK_I_binding pIC50: 5.9

O=C(N[C@@H]1CCCNC1)c1sc2nccc3c2c1NC(=O)N3c1ccc(OC2CCC2)cc1 [Example 626, (R)-5-(4-Cyclobutoxyphenyl)-4-oxo-N-(piperidin-3-yl)-4,5-dihydro-3H-1-thia-3,5,8-triazaacenaphthylene-2-carboxamide]
IC50: 1260 nM

CC(C)(C)OC(=O)N1CCC(NC(=O)c2sc3nccc4c3c2NC(=O)N4c2ccc(Oc3ccccc3)cc2)CC1 [Example 627, tert-Butyl 4-(4-oxo-5-(4-phenoxyphenyl)-4,5-dihydro-3H-1-thia-3,5,8-triazaacenaphthylene-2-carboxamido)piperidine-1-carboxylate]
BTK_I_binding pIC50: 5.9

CC(C)(C)OC(=O)N1CCC[C@@H](NC(=O)c2sc3nccc4c3c2NC(=O)N4c2ccc(Oc3ccccc3)cc2)C1 [Example 628, (R)-tert-Butyl 3-(4-oxo-5-(4-phenoxyphenyl)-4,5-dihydro-3H-1-thia-3,5,8-triazaacenaphthylene-2-carboxamido)piperidine-1-carboxylate]
BTK_I_binding pIC50: 5.8

O=C(N[C@@H]1CCCNC1)c1sc2nccc3c2c1NC(=O)N3c1cccc(C2CCCCC2)c1 [Example 629, (R)-5-(3-Cyclohexylphenyl)-4-oxo-N-(piperidin-3-yl)-4,5-dihydro-3H-1-thia-3,5,8-triazaacenaphthylene-2-carboxamide]
IC50: 1260 nM

CC(C)c1cccc(N2C(=O)Nc3c(C(=O)N[C@@H]4CCCNC4)sc4nccc2c34)c1 [Example 630, (R)-5-(3-Isopropylphenyl)-4-oxo-N-(piperidin-3-yl)-4,5-dihydro-3H-1-thia-3,5,8-triazaacenaphthylene-2-carboxamide]
BTK_I_binding pIC50: 5.9

C=CC(=O)N1CCC[C@@H](NC(=O)c2sc3nccc4c3c2NC(=O)N4c2cccc(-c3ccncc3)c2)C1 [Example 631, (R)—N-(1-Acryloylpiperidin-3-yl)-4-oxo-5-(3-(pyridin-4-yl)phenyl)-4,5-dihydro-3H-1-thia-3,58-triazaacenaphthylene-2-carboxamide]
BTK_I_binding pIC50: 5.9

C=CC(=O)N1CCC[C@@H](NC(=O)c2sc3nccc4c3c2NC(=O)N4c2cccc(C3COC3)c2)C1 [Example 632, (R)—N-(1-Acryloylpiperidin-3-yl)-5-(3-(oxetan-3-yl)phenyl)-4-oxo-4,5-dihydro-3H-1-thia-3,5,8-triazaacenaphthylene-2-carboxamide]
BTK_I_binding pIC50: 5.9

C=CC(=O)N1CCC[C@@H](NC(=O)c2sc3nccc4c3c2NC(=O)N4c2ccc(OC(C)C)c(C)c2)C1 [Example 633, (R)—N-(1-Acryloylpiperidin-3-yl)-5-(4-isopropoxy-3-methylphenyl)-4-oxo-4,5-dihydro-3H-1-thia-3,5,8-triazaacenaphthylene-2-carboxamide]
BTK_I_binding pIC50: 5.8

O=C(N[C@@H]1CCCNC1)c1sc2nccc3c2c1NC(=O)N3c1ccnc(C2CCC2)c1 [Example 634, (R)-5-(2-Cyclobutylpyridin-4-yl)-4-oxo-N-(piperidin-3-yl)-4,5-dihydro-3H-1-thia-3,5,8-triazaacenaphthylene-2-carboxamide]
BTK_I_binding pIC50: 5.8

C=CC(=O)N1CCC[C@@H](NC(=O)c2sc3nccc4c3c2NC(=O)N4c2cccc(Oc3ccccc3)n2)C1 [Example 635, (R)—N-(1-Acryloylpiperidin-3-yl)-4-oxo-5-(6-phenoxypyridin-2-yl)-4,5-dihydro-3H-1-thia-3,5,8-triazaacenaphthylene-2-carboxamide]
BTK_I_binding pIC50: 5.8

O=C(N[C@@H]1CCCNC1)c1sc2nccc3c2c1NC(=O)N3c1ccc2c(c1)OC(F)(F)O2 [Example 636, (R)-5-(2,2-Difluorobenzo[d][1,3]dioxol-5-yl)-4-oxo-N-(piperidin-3-yl)-4,5-dihydro-3H-1-thia-3,5,8-triazaacenaphthylene-2-carboxamide]
BTK_I_binding pIC50: 5.7

CC(C)Oc1cccc(N2C(=O)Nc3c(C(=O)N[C@@H]4CCCNC4)sc4nccc2c34)c1 [Example 637, (R)-5-(3-Isopropoxyphenyl)-4-oxo-N-(piperidin-3-yl)-4,5-dihydro-3H-1-thia-3,5,8-triazaacenaphthlene-2-carboxamide]
BTK_I_binding pIC50: 5.7

C=CC(=O)N1CCC[C@@H](NC(=O)c2sc3nccc4c3c2NC(=O)N4c2cccc(C(C)(C)C)c2)C1 [Example 638, (R)—N-(1-Acryloylpiperidin-3-yl)-5-(3-(tert-butyl)phenyl)-4-oxo-4,5-dihydro-3H-1-thia-3,5,8-triazaacenaphthylene-2-carboxamide]
BTK_I_binding pIC50: 5.7

CO[C@H]1CN(C(=O)OC(C)(C)C)C[C@@H]1NC(=O)c1sc2nccc3c2c1NC(=O)N3c1ccc(Oc2ccccc2)cc1 [Example 639, (3S,4S)-tert-Butyl 3-methoxy-4-(4-oxo-5-(4-phenoxyphenyl)-4,5-dihydro-3H-1-thia-3,5,8-triazaacenaphthylene-2-carboxamido)pyrrolidine-1-carboxylate]
BTK_I_binding pIC50: 5.7

C=CC(=O)N1CCC[C@@H](NC(=O)c2sc3nccc4c3c2NC(=O)N4c2cc(OC(C)C)ccc2C)C1 [Example 640, (R)—N-(1-Acryloylpiperidin-3-yl)-5-(5-isopropoxy-2-methylphenyl)-4-oxo-4,5-dihydro-3H-1-thia-3,5,8-triazaacenaphthylene-2-carboxamide]
BTK_I_binding pIC50: 5.6

C=CC(=O)N1CCC[C@@H](NC(=O)c2sc3nccc4c3c2NC(=O)N4c2ccc(S(=O)(=O)C(C)(C)C)cc2)C1 [Example 641, (R)—N-(1-Acryloylpiperidin-3-yl)-5-(4-(tert-butylsulfonyl)phenyl)-4-oxo-4,5-dihydro-3H-1-thia-3,5,8-triazaacenaphthylene-2-carboxamide]
BTK_I_binding pIC50: 5.6

O=C(N[C@@H]1CCCNC1)c1sc2nccc3c2c1NC(=O)N3c1ccc(O)cc1 [Example 642, (R)-5-(4-Hydroxyphenyl)-4-oxo-N-(piperidin-3-yl)-4,5-dihydro-3H-1-thia-3,5,8-triazaacenaphthylene-2-carboxamide]
BTK_I_binding pIC50: 5.3

CC(=O)c1cccc(N2C(=O)Nc3c(C(=O)N[C@@H]4CCCNC4)sc4nccc2c34)c1 [Example 643, (R)-5-(3-Acetylphenyl)-4-oxo-N-(piperidin-3-yl)-4,5-dihydro-3H-1-thia-3,5,8-triazaacenaphthylene-2-carboxamide]
BTK_I_binding pIC50: 5.1

Cc1ccc(OC(C)C)cc1N1C(=O)Nc2c(C(=O)N[C@@H]3CCCNC3)sc3nccc1c23 [Example 644, (R)-5-(5-Isopropoxy-2-methylphenyl)-4-oxo-N-(piperidin-3-yl)-4,5-dihydro-3H-1-thia-3,5,8-triazaacenaphthylene-2-carboxamide]
BTK_I_binding pIC50: <5
